Test results taken from the PolyMetriX glass transition set.
± gives the standard deviation of the reports.

Which glass transition temperature does the source give for `*c1ccc(Oc2ccc(Oc3ccc(N4C(=O)C5CCC6C(=O)N(*)C(=O)C6C5C4=O)cc3)cc2)cc1` (repeat unit) here?
The glass transition temperature was 274.00 °C.

For `*C(=O)c1ccc2c(c1)C(=O)N(c1cc(/C=N/C(=S)Nc3ccc(N4C(=O)c5ccc(*)cc5C4=O)cc3)ccc1Cl)C2=O` (repeat unit), which glass transition temperature is on record?
Its glass transition temperature is 274.00 °C.

Which glass transition temperature does the source give for `*c1ccc2c(c1)C(=O)N(c1ccc(C(c3ccc(C)c(N4C(=O)c5ccc(C(*)(C(F)(F)F)C(F)(F)F)cc5C4=O)c3)(C(F)(F)F)C(F)(F)F)cc1C)C2=O` (repeat unit) here?
The glass transition temperature was 266.00 °C.

For `*c1ccc2c(c1)C(=O)N(c1cccc(C(F)(F)C(F)(F)C(F)(F)c3cccc(N4C(=O)c5ccc(C(F)(F)C(F)(F)C(F)(F)C(F)(F)C(F)(F)C(F)(F)C(*)(F)F)cc5C4=O)c3)c1)C2=O` (repeat unit), which glass transition temperature is on record?
The glass transition temperature was 133.50 °C.

Which glass transition temperature does the source give for `*OP(=O)(Oc1ccc(Br)cc1)OC(CCl)COc1ccc(S(=O)(=O)c2ccc(OCC(*)CCl)cc2)cc1` (repeat unit) here?
Its glass transition temperature is 58.00 °C.

For `*Oc1c(C)cc(C2(c3cc(C)c(OC(=O)c4cccc(C(*)=O)c4)c(C)c3)c3ccccc3-c3ccccc32)cc1C` (repeat unit), which glass transition temperature is on record?
Its glass transition temperature is 315.00 °C.

With `*CC(*)SCCCC` (repeat unit) as the compound, how does the glass transition temperature read?
The glass transition temperature was -20.00 °C.

For `*C1(F)OC(C(F)(F)F)(C(F)(F)Cl)OC1(*)F` (repeat unit), which glass transition temperature is on record?
The glass transition temperature was 330.00 °C.

For `*Oc1ccc(S(=O)(=O)c2ccc(Oc3c(C(C)C)cc(C(C)(C)c4cc(C(C)C)c(*)c(C(C)C)c4)cc3C(C)C)cc2)cc1` (repeat unit), which glass transition temperature is on record?
The glass transition temperature was 175.00 °C.

With `*CC(*)c1ccc([Si](C)(C)O[Si](C)(C)O[Si](C)(C)C)cc1` (repeat unit) as the compound, how does the glass transition temperature read?
Its glass transition temperature is -27.00 °C.

Which glass transition temperature does the source give for `*Oc1ccc(P(=O)(c2ccccc2)c2ccc(Oc3ccc(C(C)(C)c4ccc(*)cc4)cc3)cc2)cc1` (repeat unit) here?
The glass transition temperature was 199.00 °C.

For `*CC(C)(C)C1C(=O)N(c2ccccc2C)C(=O)C1*` (repeat unit), which glass transition temperature is on record?
Its glass transition temperature is 207.00 °C.

Which glass transition temperature does the source give for `*CCCCCCN1C(=O)c2ccc(C(=O)c3ccc4c(c3)C(=O)N(*)C4=O)cc2C1=O` (repeat unit) here?
Its glass transition temperature is 127.00 °C.

With `*CC(*)c1ccc(C(C)C)cc1` (repeat unit) as the compound, how does the glass transition temperature read?
Its glass transition temperature is 62.40 °C.

For `*c1ccc(Oc2c(C)cc(C(c3cccnc3)c3cc(C)c(Oc4ccc(N5C(=O)CC(Nc6ccc(NC7CC(=O)N(*)C7=O)cc6)C5=O)cc4)c(C)c3)cc2C)cc1` (repeat unit), which glass transition temperature is on record?
Its glass transition temperature is 229.00 °C.

With `*CC(COC(=O)O*)OCCCCCCCCCCCOc1ccc(/C=C/c2ccc([N+](=O)[O-])cc2)cc1` (repeat unit) as the compound, how does the glass transition temperature read?
The glass transition temperature was 21.00 °C.

With `*Oc1ccc(S(=O)(=O)c2ccc(Oc3ccc(C4(c5ccc(*)cc5)CCCCC4)cc3)cc2)cc1` (repeat unit) as the compound, how does the glass transition temperature read?
Its glass transition temperature is 226.00 °C.

For `*/C=C/CCCC(Cl)CCC*` (repeat unit), which glass transition temperature is on record?
Its glass transition temperature is -63.00 °C.

Which glass transition temperature does the source give for `*c1ccc(Oc2ccc(Oc3ccc(-c4cnc5cc(-c6ccc7nc(*)cnc7c6)ccc5n4)cc3)cc2)cc1` (repeat unit) here?
Its glass transition temperature is 195.00 °C.

With `*Nc1cc(NC(=O)c2ccc3cc(C(*)=O)ccc3c2)cc(C(=O)OCCOc2ccc(/C=C/C(=O)c3ccccc3)cc2)c1` (repeat unit) as the compound, how does the glass transition temperature read?
The glass transition temperature was 247.00 °C.

With `*c1ccc(Oc2ccc(Sc3ccc(Oc4ccc(-c5cccc(*)n5)cc4C(F)(F)F)cc3)cc2)c(C(F)(F)F)c1` (repeat unit) as the compound, how does the glass transition temperature read?
Its glass transition temperature is 144.50 °C.

Which glass transition temperature does the source give for `*OS(=O)(=O)c1cc(S(=O)(=O)Oc2ccc(C3(c4ccc(*)c(C)c4)CCCCC3)cc2C)ccc1C` (repeat unit) here?
Its glass transition temperature is 141.00 °C.

Which glass transition temperature does the source give for `*Oc1ccc(C2(c3ccc(OC(=O)c4cccc(C(*)=O)c4)cc3)CCCCC2)cc1` (repeat unit) here?
The glass transition temperature was 127.00 °C.

Which glass transition temperature does the source give for `*CC(*)(C)C(=O)OCCCCCCCCCCCCOc1ccc(C(=O)Oc2ccc(-c3cccc(OC(=O)c4ccc(OC(=O)c5ccc(OCCCCCCCCCCCC)cc5)cc4)c3)cc2)cc1` (repeat unit) here?
The glass transition temperature was 74.50 °C.

For `*C/C=C/C[Si](*)(C)CCCOc1ccccc1` (repeat unit), which glass transition temperature is on record?
Its glass transition temperature is -30.00 °C.

With `*Nc1ccccc1CCc1ccc(NC(=O)Nc2ccc(CCc3ccc(NC(*)=O)cc3)cc2)cc1` (repeat unit) as the compound, how does the glass transition temperature read?
The glass transition temperature was 217.00 °C.

Which glass transition temperature does the source give for `*=NP(=NP(=NC(=*)Oc1ccc(Br)cc1)(Oc1ccc(Br)cc1)Oc1ccc(Br)cc1)(Oc1ccc(Br)cc1)Oc1ccc(Br)cc1` (repeat unit) here?
The glass transition temperature was 45.00 °C.

For `*CC(*)O` (repeat unit) [Poly(vinyl alcohol)], which glass transition temperature is on record?
The glass transition temperature was 79.67 ± 32 °C.

With `*c1ccc2c(c1)C(=O)N(c1cc(C)c(N3C(=O)c4ccc(C(*)(C(F)(F)F)C(F)(F)F)cc4C3=O)cc1C)C2=O` (repeat unit) as the compound, how does the glass transition temperature read?
Its glass transition temperature is 367.00 ± 17 °C.

With `*OC(COC(=O)c1ccc2cc(C(*)=O)ccc2c1)COc1ccc(/N=N/c2ccc(C#N)cc2)cc1` (repeat unit) as the compound, how does the glass transition temperature read?
The glass transition temperature was 138.00 °C.

Which glass transition temperature does the source give for `*/C=C/CCCCCCCCCC(CCCCCCCCC*)COCCOCCOCCOCCOCc1ccc2ccc3cccc4ccc1c2c34` (repeat unit) here?
The glass transition temperature was -36.00 °C.

Which glass transition temperature does the source give for `*c1cc(-c2nc3ccccc3oc2=O)cc(-n2c(=O)c3cc4c(=O)n(*)c(=O)c4cc3c2=O)c1` (repeat unit) here?
Its glass transition temperature is 130.00 °C.

With `*c1ccc(-c2ccc(-c3cc(-c4ccc(-c5ccc(Oc6ccccc6)cc5)cc4)c4cc(-c5ccc6nc(*)cc(-c7ccc(-c8ccc(Oc9ccccc9)cc8)cc7)c6c5)ccc4n3)cc2)cc1` (repeat unit) as the compound, how does the glass transition temperature read?
Its glass transition temperature is 374.00 °C.

With `*CCCCCCNC(=O)c1ccc(C2(C)CC(C)(C)c3ccc(C(=O)N*)cc32)cc1` (repeat unit) as the compound, how does the glass transition temperature read?
Its glass transition temperature is 190.00 °C.

For `*CC(OO*)c1ccc(C(C)(C)C)cc1` (repeat unit), which glass transition temperature is on record?
The glass transition temperature was 19.90 °C.

For `*CC(*)(C)C(=O)OCc1c(F)cccc1F` (repeat unit), which glass transition temperature is on record?
The glass transition temperature was 82.00 °C.

Which glass transition temperature does the source give for `*CC(*)(C)C(=O)OCCCCCCOc1ccc(/N=N/c2ccc(OCCCCCCCCCC)cc2)cc1` (repeat unit) here?
Its glass transition temperature is 110.00 °C.

For `*Oc1ccc(S(=O)(=O)c2ccc(Oc3ccc(C(C)(c4ccc(*)cc4)c4ccc(O)cc4)cc3)cc2)cc1` (repeat unit), which glass transition temperature is on record?
The glass transition temperature was 228.00 °C.

Which glass transition temperature does the source give for `*C(=O)c1cc2c(cc1Cl)C(=O)N(c1cc(N3C(=O)c4cc(*)c(Cl)cc4C3=O)cc(C(F)(F)F)c1)C2=O` (repeat unit) here?
The glass transition temperature was 305.00 °C.

Which glass transition temperature does the source give for `*CC(*)CNc1ccc([N+](=O)[O-])cc1` (repeat unit) here?
Its glass transition temperature is 144.00 °C.

With `*CC(*)C(=O)OCCCCn1c2ccccc2c2ccccc21` (repeat unit) as the compound, how does the glass transition temperature read?
Its glass transition temperature is 68.00 °C.

For `*/C=C/c1ccc2c(c1)C(CC(CC)CCCC)(CC(CC)CCCC)c1cc(*)ccc1-2` (repeat unit), which glass transition temperature is on record?
The glass transition temperature was 165.00 °C.

Which glass transition temperature does the source give for `*CCCNC(=O)Cc1ccc(C(=O)N*)cc1` (repeat unit) here?
Its glass transition temperature is 109.00 °C.

Which glass transition temperature does the source give for `*C(=O)OCC(COc1ccc(/N=N/c2ccc(C#N)cc2)cc1)OC(=O)c1ncccc1*` (repeat unit) here?
Its glass transition temperature is 130.00 °C.

With `*/C=C/c1cccc(OC(=O)CCCCCCCCC(=O)Oc2ccc(-c3nnc(*)s3)cc2)c1` (repeat unit) as the compound, how does the glass transition temperature read?
The glass transition temperature was 55.00 °C.

Which glass transition temperature does the source give for `*c1ccc(Oc2ccc(S(=O)(=O)c3ccc(Oc4ccc(-c5nc(-c6ccc(-c7nc(*)c(-c8ccccc8)[nH]7)cc6)[nH]c5-c5ccccc5)cc4)cc3)cc2)cc1` (repeat unit) here?
Its glass transition temperature is 301.00 °C.

Which glass transition temperature does the source give for `*CCCCCNC(=O)CCCCCCCCCCCCCCCCCCC(=O)N*` (repeat unit) here?
Its glass transition temperature is 52.00 °C.

For `*Oc1ccc(/C=C2\CC/C(=C\c3ccc(OC(=O)c4ccc(/N=C/c5ccc(/C=N/c6ccc(C(*)=O)cc6)cc5)cc4)cc3)C2=O)cc1` (repeat unit), which glass transition temperature is on record?
Its glass transition temperature is 205.00 °C.

With `*CC(=O)Nc1ccc(Oc2cccc(Oc3ccc(NC(=O)CN4C(=O)c5ccc(C(c6ccc7c(c6)C(=O)N(*)C7=O)(C(F)(F)F)C(F)(F)F)cc5C4=O)cc3)c2)cc1` (repeat unit) as the compound, how does the glass transition temperature read?
The glass transition temperature was 221.00 °C.

Which glass transition temperature does the source give for `*CC(*)OC(=O)c1cccc(Br)c1` (repeat unit) here?
Its glass transition temperature is 57.50 °C.

Which glass transition temperature does the source give for `*c1ccc(C(=O)Oc2ccc(OC(=O)c3ccc(N4C(=O)CC(SCCOCCSC5CC(=O)N(*)C5=O)C4=O)cc3)cc2)cc1` (repeat unit) here?
Its glass transition temperature is 166.00 °C.

For `*c1ccc(Oc2ccc(C(=O)c3ccc(Oc4ccc(N5C(=O)c6ccc(-c7ccc8c(c7)C(=O)N(*)C8=O)cc6C5=O)cc4)cc3)cc2)cc1` (repeat unit), which glass transition temperature is on record?
Its glass transition temperature is 253.00 °C.

With `*c1ccc(-c2ccc(-c3ccc(-c4ccc([Si](CCCC)(CCCC)[Si](*)(CCCC)CCCC)s4)s3)s2)s1` (repeat unit) as the compound, how does the glass transition temperature read?
Its glass transition temperature is -1.00 °C.

With `*CC(*)C(=O)OCC(F)(F)C(F)(F)C(F)(F)C(F)F` (repeat unit) as the compound, how does the glass transition temperature read?
The glass transition temperature was -35.00 °C.

For `*Oc1ccc2cc(Oc3ccc(C(=O)c4ccc(*)cc4)cc3)ccc2c1` (repeat unit), which glass transition temperature is on record?
Its glass transition temperature is 247.00 °C.

For `*/C(C)=C(/*)[Si](C)(C)CCCCCC` (repeat unit), which glass transition temperature is on record?
Its glass transition temperature is 200.00 °C.

Which glass transition temperature does the source give for `*O[Si](*)(C)CCCOc1ccc2c(c1)c1cc(-c3ccc4c(c3)c3ccccc3n4CC(CC)CCCC)ccc1n2CC(CC)CCCC` (repeat unit) here?
The glass transition temperature was 129.00 °C.

With `*CCCCCCOc1ccc(N(c2ccccc2)c2ccc(-c3ccc(N(c4ccccc4)c4ccc(O*)cc4)cc3)cc2)cc1` (repeat unit) as the compound, how does the glass transition temperature read?
Its glass transition temperature is 85.00 °C.

For `*C(=O)OCCN(CCOC(=O)c1ccc2c(c1)C(=O)N(c1c(C)cc(Cc3cc(C)c(N4C(=O)c5ccc(*)cc5C4=O)c(C)c3)cc1C)C2=O)c1ccccc1` (repeat unit), which glass transition temperature is on record?
The glass transition temperature was 177.00 °C.

For `*OC(F)(F)COC(=O)c1cccc(C(F)(F)C(F)(F)C(F)(F)c2cccc(C(=O)OCC(*)(F)F)c2)c1` (repeat unit), which glass transition temperature is on record?
Its glass transition temperature is 30.00 °C.

Which glass transition temperature does the source give for `*CCCCCC(=O)Oc1ccc(OC(=O)CCCCCn2c(=O)c3cc4c(=O)n(*)c(=O)c4cc3c2=O)c(-c2ccccc2)c1` (repeat unit) here?
The glass transition temperature was 82.00 °C.

Which glass transition temperature does the source give for `*Cc1cccc(CNC(=O)CCCCC(=O)N*)c1` (repeat unit) here?
The glass transition temperature was 84.00 °C.

With `*CCNC(=O)c1ccc(O*)cc1` (repeat unit) as the compound, how does the glass transition temperature read?
Its glass transition temperature is 150.00 °C.

For `*Oc1ccc(C(C)(c2ccccc2)c2ccc(OC(=O)OC3C(C)(C)C(OC(*)=O)C3(C)C)cc2)cc1` (repeat unit), which glass transition temperature is on record?
Its glass transition temperature is 149.00 °C.

With `*CC(C)(C)COC(=O)c1ccc(-c2ccc(C(=O)O*)cc2)cc1` (repeat unit) as the compound, how does the glass transition temperature read?
Its glass transition temperature is 101.00 °C.

For `*CCOCCOCCOCCOCCOC(=O)CCSCCC(=O)O*` (repeat unit), which glass transition temperature is on record?
Its glass transition temperature is -39.00 °C.
